Experimental data from ChEMBL document CHEMBL1128323, “Antifungal agents. 9. 3-Aryl-4-[alpha-(1H-imidazol-1-yl)arylmethyl]pyrroles: a new class of potent anti-Candida agents” (1995).
In brackets after ≈: the same amount, converted by molar mass. Several values for one entry are separate records, joined by “and”; a condition that tells them apart may be missing. Identical values can stand only once.

Legend:
Format in all cases: functional
Candida albicans [1] = assay: Inhibitory activity against Candida albicans (40 clinical isolates), determined at pH-5.8
Candida albicans [2] = assay: The compound was tested for percent resistance against Candida. albicans (40 clinical isolates) at 256 micro g/mL (pH=7.2), activity is expressed as R%.
Candida [3] = assay: The compound was tested for percent resistance against all Candida. species (40 clinical isolates) at 256 micro g/mL (pH=5.8), activity is expressed as R%.
Candida [4] = assay: 90% inhibitory activity against the Candida. species (40 clinical isolates) was determined at pH-7.2
Candida [5] = assay: Inhibitory activity against Candida. species. (40 clinical isolates), determined at pH-5.8
Candida albicans [6] = assay: 50% inhibitory activity against Candida albicans (40 clinical isolates) determined at pH-7.2; conditions: Candida albicans; read-out: MIC50
Candida albicans [7] = assay: Inhibitory activity against the Candida albicans (40 clinical isolates), determined at pH-5.8
Candida [8] = assay: 50% inhibitory activity against the Candida. species (40 clinical isolates) was determined at pH-7.2
Candida albicans [9] = assay: 50% inhibitory activity against Candida albicans (40 clinical isolates) determined at pH-5.8
Candida [10] = assay: Percent resistance against all Candida. species (40 clinical isolates) at 256 micro g/mL (pH=7.2), activity is expressed as R%.
Candida albicans [11] = assay: Percent resistance against Candida albicans (40 clinical isolates) at 256 micro g/mL (pH=5.8), activity is expressed as R%.
Candida [12] = assay: Inhibitory activity against Candida. species (40 clinical isolates), determined at pH-5.8
Candida [13] = assay: Inhibitory activity against Candida. species. (40 clinical isolates), determined at pH-7.2
Candida albicans [14] = assay: Inhibitory activity against Candida albicans (40 clinical isolates), determined at pH-7.2
Candida albicans [15] = assay: Inhibitory activity against the Candida albicans (40 clinical isolates), determined at pH-7.2
Candida [16] = assay: 90% inhibitory activity against Candida. species (40 clinical isolates) determined at pH-7.2
Oryctolagus cuniculus [17] = assay: Topical comparison with bifonazole in white male rabbits by treatment twice daily on 15 consecutive days starting 48 hr after inoculation.
Oryctolagus cuniculus [18] = assay: Topical comparison with bifonazole in white male rabbits at 1% concentration of compound
Candida [19] = assay: Resistance against all Candida. species (40 clinical isolates) at 256 micro g/mL (pH=5.8). Activity is expressed as R%.
Candida albicans [20] = assay: Resistance against Candida. albicans (40 clinical isolates) at 256 ug/mL (pH=7.2), activity is expressed as R%.
Candida [21] = assay: The compound was tested for percent resistance against all Candida. species (40 clinical isolates) at 256 ug/mL (pH=5.8), activity is expressed as R%.
Candida [22] = assay: The compound was tested for percent resistance against all Candida. species (40 clinical isolates) at 256 ug/mL (pH=7.2), activity is expressed as R%.
Candida [23] = assay: Inhibitory activity against the Candida. species. (40 clinical isolates) was determined at pH-7.2

Row | SMILES | MIC (Candida albicans [1]) [µg/mL] | MIC90 (Candida [4]) [µg/mL] | MIC (Candida [5]) [µg/mL] | MIC50 (Candida albicans [6]) [µg/mL] | MIC90 (Candida albicans [7]) [µg/mL] | MIC50 (Candida [8]) [µg/mL] | MIC50 (Candida albicans [9]) [µg/mL] | R (Candida [10]) [%] | R (Candida albicans [11]) [%] | MIC50 (Candida [12]) [µg/mL] | MIC90 (Candida [12]) [µg/mL] | MIC (Candida [13]) [µg/mL] | MIC (Candida albicans [14]) [µg/mL] | MIC90 (Candida albicans [15]) [µg/mL] | R (Candida albicans [20]) [%] | also measured
1 | CC(=O)N1CCN(c2ccc(OC[C@H]3CO[C@](Cn4ccnc4)(c4ccc(Cl)cc4Cl)O3)cc2)CC1 [KETOCONAZOLE] | 8.6 (≈ 16.2 µM) | 32 (≈ 60.2 µM) | 16.9 (≈ 31.8 µM) | 2 (≈ 3.76 µM) | 32 (≈ 60.2 µM) | 4 (≈ 7.53 µM) | 0.5 (≈ 0.941 µM) | 0 | 0 | 4 (≈ 7.53 µM) | 32 (≈ 60.2 µM) | 8.1 (≈ 15.2 µM) | 8.3 (≈ 15.6 µM) | 32 (≈ 60.2 µM) | – | R (Candida albicans [2]): 0%; Fungicidal (Candida [3]): 0%
2 | Clc1ccc(-c2c[nH]cc2C(c2ccccc2)n2ccnc2)cc1 (stereo not given) | 12.8 (≈ 38.3 µM) | – | 44.4 (≈ 133 µM) | 2 (≈ 5.99 µM) | 32 (≈ 95.9 µM) | 32 (≈ 95.9 µM) | 16 (≈ 47.9 µM) | 0 | 0 | 32 (≈ 95.9 µM) | 32 (≈ 95.9 µM) | 46.5 (≈ 139 µM) | 6.4 (≈ 19.2 µM) | 16 (≈ 47.9 µM) | 0 | MIC90 (Candida [16]): 128 µg/mL (≈ 383 µM); No. of animals (Oryctolagus cuniculus [17]): 33%; Percentage of animals (Oryctolagus cuniculus [18]): 50% and 83%; R (Candida [19]): 0%
3 | c1ccc(-c2c[nH]cc2C(c2ccccc2)n2ccnc2)cc1 (stereo not given) | 53.9 (≈ 180 µM) | > 256 | 88 (≈ 294 µM) | 32 (≈ 107 µM) | 128 (≈ 428 µM) | > 256 | 32 (≈ 107 µM) | – | 0 | 128 (≈ 428 µM) | 128 (≈ 428 µM) | – | > 35.4 | 64 (≈ 214 µM) | 2.7 | R (Candida [21]): 0%; R (Candida [22]): 75%; MIC (Candida [23]): > 396 µg/mL
